In US20110003805A1, “CONCOMITANT DRUG” (TAKEDA PHARMACEUTICAL COMPANY LIMITED, priority 2008, published 2011):

System: TS (thymidine) gene expression in human breast cancer cell line BT-474
Assay: Measurement of expression amount of TS (thymidine) by addition of compound A, TaqMan
Assay type: cell-based
Details: BT-474 cells, 100 nmol/L, two days after addition, GAPDH as internal standard (FIG. 4)
Description: Human breast cancer cell line BT-474 (ATCC (American Type Culture Collection) catalog No. HTB-20, Lasfargues EY, In Vitro 15:723-729(1979)), which is a passage cultured HER2 high expressing cell, was treated with trypsin and suspended in RPMI-1640 medium (GibcoInvitrogen) containing 10% bovine fetus serum (GibcoInvitrogen). The cell density of the cell suspension was measured by cell counter Sysmex CDA500, and the cell density was adjusted to 5×10^4 cell/mL using the aforementioned medium. The suspension was dispensed to each well of a 6 well multi-well culture plate (Corning) by 2 mL, and cultured overnight at 37° C. under 5% CO2. […] Using this cDNA as a template, the TS expression amount was measured using TaqMan Gene Expression Assays (Applied Biosystems). […] Ct method (Applied Biosystems) with GAPDH as an internal standard (FIG. 4).

CC(C)(O)CC(=O)NCCn1ccc2ncnc(Nc3ccc(Oc4cccc(C(F)(F)F)c4)c(Cl)c3)c21 [compound A, N-{2-[4-({3-chloro-4-[3-(trifluoromethyl)phenoxy]phenyl}amino)-5H-pyrrolo[3,2-d]pyrimidin-5-yl]ethyl}-3-hydroxy-3-methylbutaneamide]
TS expression amount: remarkably decreased
